Results on six compounds are retold here after ChEMBL document CHEMBL1932988, “Synthesis, antimicrobial, anticancer evaluation and QSAR studies of 6-methyl-4-[1-(2-substituted-phenylamino-acetyl)-1H-indol-3-yl]-2-oxo/thioxo-1,2,3,4-tetrahydropyrimidine-5-carboxylic acid ethyl esters” (Eur J Med Chem, 2012).

Converted amounts (≈) assume the structure as drawn. A value given as a limit tells only on which side of the number the result lay.

Series [1] relates to Bacillus subtilis. Briefly: Antibacterial activity against Bacillus subtilis MTCC 2063 after 24 hrs by tube dilution method. The class given is functional.
The test system of series [2] is Candida albicans. Briefly: Antifungal activity against Candida albicans MTCC 227 after 48 hrs by tube dilution method. In kind it is functional.
Series [3] can be described thus: Partition coefficient, log P of the compound. The class given is physicochemical. Particulars: octanol/water.
For a further series, the system named is MCF7. Briefly: cells. The conditions noted are these: Homo sapiens, MCF7, 72 h.
Series [4] deals with Aspergillus niger. Briefly: Antifungal activity against Aspergillus niger MTCC 8189 after 7 days by tube dilution method. In kind it is functional.
Series [5] concerns Staphylococcus aureus. The series can be described thus: Ratio of MIC to MBC for Staphylococcus aureus MTCC 2901. The class given is functional.
For series [6], the system named is Bacillus subtilis. The series can be described thus: Ratio of MIC to MBC for Bacillus subtilis MTCC 2063. In kind it is functional.
The subject of series [7] is Staphylococcus aureus. The series can be described thus: Antibacterial activity against Staphylococcus aureus MTCC 2901 after 24 hrs followed by subculturing. In kind it is functional.
Series [8] deals with Candida albicans. The series can be described thus: Antifungal activity against Candida albicans MTCC 227 after 48 hrs by tube dilution method hrs followed by subculturing. The class given is functional.
The subject of series [9] is Escherichia coli. Briefly: Ratio of MIC to MBC for Escherichia coli MTCC 1652. In kind it is functional.
Series [10] relates to Escherichia coli. Briefly: Antibacterial activity against Escherichia coli MTCC 1652 after 24 hrs by tube dilution method hrs followed by subculturing. In kind it is functional.
In a further series the test system is HCT-116. The series can be described thus: cells. Particulars: Homo sapiens, HCT-116, 72 h.
In series [11] the test system is Candida albicans. Briefly: Ratio of MIC to MFC for Candida albicans MTCC 227. The class given is functional.
Series [12] has as its system Staphylococcus aureus. The series can be described thus: Antibacterial activity against Staphylococcus aureus MTCC 2901 after 24 hrs by tube dilution method. In kind it is functional.
The subject of series [13] is Bacillus subtilis. Briefly: Antibacterial activity against Bacillus subtilis MTCC 2063 after 24 hrs by tube dilution method hrs followed by subculturing. The class given is functional.
Series [14] relates to Escherichia coli. The series can be described thus: Antibacterial activity against Escherichia coli MTCC 1652 after 24 hrs by tube dilution method. In kind it is functional.
Series [15] deals with Aspergillus niger. Briefly: Antifungal activity against Aspergillus niger MTCC 8189 after 7 days by tube dilution method hrs followed by subculturing. The class given is functional.
The test system of series [16] is Aspergillus niger. Briefly: Ratio of MIC to MFC for Aspergillus niger MTCC 8189. In kind it is functional.

By logP is commonly meant a log measure of how a compound divides between an organic and an aqueous phase. As a reminder, the IC50 is the midpoint of a concentration-inhibition curve. High values mean weaker potency in that assay, low ones greater potency in that assay.

Description for MCF7: Cytotoxicity against human MCF7 cells after 72 hrs by MTT assay

With `CCOC(=O)C1=C(C)NC(=O)NC1c1cn(C(=O)CNc2ccc([N+](=O)[O-])cc2C)c2ccccc12` (stereo not drawn), the “-logMIC” value was 1.29 with Bacillus subtilis [1]; 1.59 in the series with Candida albicans [2]; 1.59 in the series with Aspergillus niger [4]; 1.59 in the series on Staphylococcus aureus [12]; 1.59 in the series on Escherichia coli [14]. In series [3], the lipophilicity (logP) was 1.94. Further, the half-inhibitory concentration (IC50) was 50 µg/mL (≈ 102 µM) with MCF7 and 600 µg/mL (≈ 1220 µM) in the series on HCT-116. Further, the Ratio in the series with Staphylococcus aureus [5], with Bacillus subtilis [6], in the series with Escherichia coli [9], in the series on Candida albicans [11] and with Aspergillus niger [16] was 3 throughout. The MBC in the series on Staphylococcus aureus [7], with Escherichia coli [10] and against Bacillus subtilis [13] was greater than 0.1 uM/ml in each case. For the same compound, the MFC against Candida albicans [8] and against Aspergillus niger [15] was greater than 0.1 uM/ml each time.

Turning to `CCOC(=O)C1=C(C)NC(=S)NC1c1cn(C(=O)CNc2ccc([N+](=O)[O-])cc2C)c2ccccc12` (stereo not drawn), the “-logMIC” value in the series with Bacillus subtilis [1], in the series on Candida albicans [2], with Aspergillus niger [4], in the series on Staphylococcus aureus [12] and with Escherichia coli [14] was 1.61 each time. Further, the logP in [3] came out at 3.34. For the same compound, the results for the IC50 in the series with MCF7 and in the series on HCT-116 were 48 µg/mL (≈ 94.6 µM) and greater than 1000 µg/mL, respectively. The Ratio with Staphylococcus aureus [5], in the series on Bacillus subtilis [6], in the series with Escherichia coli [9], with Candida albicans [11] and in the series with Aspergillus niger [16] was 3 each time. The MBC against Staphylococcus aureus [7], with Escherichia coli [10] and in the series with Bacillus subtilis [13] was greater than 0.1 uM/ml each time. Moreover, the MFC with Candida albicans [8] and in the series on Aspergillus niger [15] was greater than 0.1 uM/ml each time.

Turning to `CCOC(=O)C1=C(C)NC(=O)NC1c1cn(C(=O)CNc2ccccc2[N+](=O)[O-])c2ccccc12` (stereo not drawn), the “-logMIC” value in the series on Bacillus subtilis [1], in the series on Candida albicans [2], in the series with Aspergillus niger [4], in the series with Staphylococcus aureus [12] and in the series on Escherichia coli [14] was 1.58 in each case. In [3], this compound displayed a lipophilicity (logP) of 1.48. The IC50 in the series with MCF7 turned out to be 40 µg/mL (≈ 83.8 µM); with HCT-116, 250 µg/mL (≈ 524 µM). Besides, the Ratio in the series with Staphylococcus aureus [5], with Bacillus subtilis [6], in the series on Escherichia coli [9], with Candida albicans [11] and in the series on Aspergillus niger [16] was 3 throughout. Further, the MBC in the series with Staphylococcus aureus [7], with Escherichia coli [10] and in the series with Bacillus subtilis [13] was greater than 0.1 uM/ml each time. Further, the MFC in the series on Candida albicans [8] and against Aspergillus niger [15] was greater than 0.1 uM/ml in each case.

Regarding `CCOC(=O)C1=C(C)NC(=S)NC1c1cn(C(=O)CNc2ccccc2[N+](=O)[O-])c2ccccc12` (stereo not drawn), the “-logMIC” value is given as 1.6 in the series with Bacillus subtilis [1]; 1.6 with Candida albicans [2]; 1.6 in the series with Aspergillus niger [4]; 1.3 in the series on Staphylococcus aureus [12]; 1.6 in the series with Escherichia coli [14]. The compound also registered a logP in [3] of 2.88. Further, the IC50 is 550 µg/mL (≈ 1110 µM) in the series on MCF7 and greater than 1000 µg/mL in the series with HCT-116. Further, the Ratio in the series on Staphylococcus aureus [5], in the series with Bacillus subtilis [6], with Escherichia coli [9], in the series with Candida albicans [11] and in the series with Aspergillus niger [16] was 3 throughout. Further, the MBC in the series with Staphylococcus aureus [7], with Escherichia coli [10] and in the series with Bacillus subtilis [13] was greater than 0.1 uM/ml each time. For the same compound, the MFC against Candida albicans [8] and in the series on Aspergillus niger [15] was greater than 0.1 uM/ml each time.

For `CCOC(=O)C1=C(C)NC(=S)NC1c1cn(C(=O)CNc2cccc([N+](=O)[O-])c2)c2ccccc12` (stereo not drawn), the “-logMIC” value with Bacillus subtilis [1] is on record as 1.6; with Candida albicans [2], 1.6; in the series on Aspergillus niger [4], 1.6; with Staphylococcus aureus [12], 1.6; in the series with Escherichia coli [14] it was 1.9. Moreover, the log partition coefficient (logP) in series [3] was determined as 2.88. For the same compound, the results for the half-inhibitory concentration (IC50) in the series on MCF7 and in the series on HCT-116 were greater than 1000 µg/mL and 130 µg/mL (≈ 263 µM), respectively. Further, the Ratio in the series with Staphylococcus aureus [5], in the series on Bacillus subtilis [6], in the series on Escherichia coli [9], with Candida albicans [11] and in the series with Aspergillus niger [16] was 3 in each case. Moreover, the MBC in the series with Staphylococcus aureus [7] is greater than 0.1 uM/ml; against Escherichia coli [10], 0.1 uM/ml; in the series with Bacillus subtilis [13], greater than 0.1 uM/ml. In addition, the MFC against Candida albicans [8] and against Aspergillus niger [15] was greater than 0.1 uM/ml each time.

For `CCOC(=O)C1=C(C)NC(=O)NC1c1cn(C(=O)CNc2ccccc2N)c2ccccc12` (stereo not drawn), the “-logMIC” value with Bacillus subtilis [1] turned out to be 1.55; in the series on Candida albicans [2], 1.55; in the series with Aspergillus niger [4], 1.55; with Staphylococcus aureus [12] it was 1.55; with Escherichia coli [14] it was 1.85. The logP in series [3] worked out at 0.74. Moreover, the IC50 in the series on MCF7 was 2.5 µg/mL (≈ 5.59 µM); with HCT-116 it was 300 µg/mL (≈ 670 µM). In addition, the Ratio in the series on Staphylococcus aureus [5], in the series on Bacillus subtilis [6], in the series on Escherichia coli [9], with Candida albicans [11] and in the series on Aspergillus niger [16] was 3 each time. The values for the MBC in the series on Staphylococcus aureus [7], with Escherichia coli [10] and with Bacillus subtilis [13] were greater than 0.11 uM/ml, 0.11 uM/ml and greater than 0.11 uM/ml, respectively. For the same compound, the MFC in the series with Candida albicans [8] and with Aspergillus niger [15] was greater than 0.11 uM/ml each time.
